biological target: B-Raf (V600E)-kinase (Homo sapiens (Human), UniProt P15056, V600E); assay: Kinase test B-Raf (V600E); assay type: biochemical; details: 250 μM ATP, biotinylated MEK1 substrate
Method: In a dilution series 10 μL of test substance solution are placed in a multiwell plate. The dilution series is selected so that generally a range of concentrations of 2 μM to 0.128 nM or 0.017 nM is covered. If necessary the initial concentration of 2 μM is changed to 50 μM, 10 μM or 0.4 μM or 0.2857 μM and further dilution is carried out accordingly. The final concentration of DMSO is 5%. 10 μL of the B-Raf (V600E)-kinase solution are pipetted in (containing 0.5 ng B-Raf (V600E)-kinase in 20 mM Tris-HCl pH 7.5, 0.1 mM EDTA, 0.1 mM EGTA, 0.286 mM sodium orthovanadate, 10% glycerol, 1 mg/mL bovine serum albumin, 1 mM dithiothreitol) and the mixture is incubated for 1 h at RT under with shaking. The kinase reaction is started by the addition of 20 μL ATP solution [final concentration: 250 μM ATP, 30 mM Tris-HCl pH 7.5, 0.02% Brij, 0.2 mM sodium orthovanadate, 10 mM magnesium acetate, phosphatase cocktail (Sigma, #P2850, dilution recommended by the manufacturer), 0.1 mM EGTA] and 10 μL MEK1 solution [containing 50 ng biotinylated MEK1 (prepared from purified MEK1 according to standard procedure, e.g. with EZ-Link Sulpho-NHS-LC-Biotin reagent, Pierce, #21335) in 50 mM Hepes pH 7.5, 150 mM NaCl, 10% glycerol, 0.02% Brij-35, 0.2 mM PMSF, 0.2 mM benzamidine] and carried out for 60 min at RT with constant shaking. The reaction is stopped by the addition of 12 μL of a 100 mM EDTA solution and incubation is continued for a further 5 min. 55 μL of the reaction solution are transferred into a streptavidin-coated plate (e.g. Streptawell HighBond, Roche, #11989685001) and shaken gently for 1 h at RT, in order to bind biotinylated MEK1 to the plate. After elimination of the liquid the plate is washed five times with 200 μL of 1×PBS and 100 μL solution of primary antibody plus europium-labelled secondary antibody [Anti Phospho-MEK (Ser217/221), Cell Signaling, #9121 and Eu-N1 labeled goat-anti-rabbit antibody, Perkin Elmer, #AD0105], the primary antibody is diluted 1:2000 and the secondary antibody is diluted to 0.4-0.5 μg/mL in Delfia Assay Buffer (Perkin Elmer, #1244-111). After 1 h shaking at RT the solution is poured away and washed five times with 200 μL Delfia Wash Buffer (Perkin Elmer, #4010-0010/#1244-114). After the addition of 200 μL Enhancement Solution (Perkin Elmer, #4001-0010/#1244-105) the mixture is shaken for 10 min at RT and then measured in a Wallac Victor using the program “Delfia Time Resolved Fluorescence (Europium)”. IC50 values are obtained from these dosage-activity curves using a software program (GraphPadPrizm).

Sequence of B-Raf (V600E)-kinase (P15056 whole entry V600E): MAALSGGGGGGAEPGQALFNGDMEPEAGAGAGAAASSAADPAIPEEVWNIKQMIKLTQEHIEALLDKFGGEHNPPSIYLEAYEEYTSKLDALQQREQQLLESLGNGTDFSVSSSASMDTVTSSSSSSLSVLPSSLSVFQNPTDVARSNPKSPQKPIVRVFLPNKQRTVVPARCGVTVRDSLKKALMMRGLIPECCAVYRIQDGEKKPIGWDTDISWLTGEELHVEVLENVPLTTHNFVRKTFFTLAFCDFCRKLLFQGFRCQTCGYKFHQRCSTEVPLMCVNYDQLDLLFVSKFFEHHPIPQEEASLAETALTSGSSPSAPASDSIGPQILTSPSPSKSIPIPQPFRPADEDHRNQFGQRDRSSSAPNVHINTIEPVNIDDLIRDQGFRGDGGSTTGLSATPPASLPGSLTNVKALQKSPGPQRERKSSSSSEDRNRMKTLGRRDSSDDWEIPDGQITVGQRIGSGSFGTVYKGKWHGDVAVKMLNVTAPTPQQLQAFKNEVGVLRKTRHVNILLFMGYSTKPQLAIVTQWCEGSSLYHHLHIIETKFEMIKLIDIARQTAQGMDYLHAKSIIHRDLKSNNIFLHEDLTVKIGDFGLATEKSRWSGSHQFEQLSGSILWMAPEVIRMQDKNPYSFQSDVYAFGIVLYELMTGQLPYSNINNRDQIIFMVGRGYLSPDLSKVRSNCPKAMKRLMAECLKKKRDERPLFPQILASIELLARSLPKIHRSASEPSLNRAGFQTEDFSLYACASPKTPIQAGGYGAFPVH

Row | SMILES | IC50 [nM]
1 | COCCN1CCN(c2ccc3ncnc(Sc4cc(C(=O)Nc5cccc(C(C)(C)C#N)c5)ccc4C)c3n2)CC1 [III-52] | 261
2 | COCCN1CCN(c2ccc3ncnc(Sc4cc(C(=O)Nc5cc(N6CCN(C)CC6)cc(C(F)(F)F)c5)ccc4C)c3n2)CC1 [III-53] | 190
3 | COCCN1CCN(c2ccc3ncnc(Sc4cc(C(=O)Nc5cc(C(C)(C)C)on5)ccc4C)c3n2)CC1 [III-54] | 269
4 | COCCN1CCN(c2ccc3ncnc(Sc4cc(C(=O)Nc5cc(C(C)(C)C)cc(NS(C)(=O)=O)c5OC)ccc4C)c3n2)CC1 [III-55] | 1620
5 | Cc1ccc(NC(=O)c2cccc(C(C)(C)C#N)c2)cc1Nc1ncnc2ccc(N3CCOCC3)nc12 [IV-1] | 4
6 | Cc1ccc(NC(=O)c2cccc(C(C)(C)C#N)c2)cc1Nc1ncnc2ccc(N3CCN(C)CC3)nc12 [IV-2] | 8
7 | COCCN1CCN(c2ccc3ncnc(Nc4cc(NC(=O)c5cccc(C(C)(C)C#N)c5)ccc4C)c3n2)CC1 [IV-3] | 18
8 | Cc1ccc(NC(=O)c2cccc(C(C)(C)C#N)c2)cc1Nc1ncnc2ccc(N3CC[C@H](F)C3)nc12 [IV-4] | 11
9 | Cc1ccc(NC(=O)c2cccc(C(C)(C)C#N)c2)cc1Nc1ncnc2ccc(N[C@H]3CCOC3)nc12 [IV-5] | 5

Reference: patent US8569316B2, “Pyrimido [5,4-D] pyrimidine derivatives for the inhibition of tyrosine kinases” (Boehringer Ingelheim International GmbH, priority 2009, dated 2013)
